Columns and labels:
[1] = tested on: Aspergillus brasiliensis ATCC 16404; experiment: Liquid broth assay (MIC and checkerboard) against Aspergillus brasiliensis; assay type: cell-based; conditions: ATCC16404, component by itself, 30° C., 24 hours, MIC = <25% growth vs control (OD600nm)
Source text: (§1) Naturally derived antimicrobial systems were made, as shown below by combining the indole alkaloid and beta carboline alkaloid. Two pools were set up and each pool contained 1 organism. The strains involved were Enterobacter gergoviae ATCC 33028 of the family Pluralibacter gergoviae, a Gram-negative and Aspergillus brasiliensis ATCC 16404. FIC test range was 16 times greater than the projected MIC for each sample.
(§2) The differing behaviors of inhibitory antimicrobials in isolation and mixtures have been widely explored using the concept of the Fractional Concentration and Fractional Inhibitory Concentration (FIC). See for instance JRW Lambert and R Lambert, J. Appl. Microbiol 95, 734 (2003); T. Jadavji, CG Prober and R Cheung, Antibacterial Agents and Chemotherapy 26, 91 (1984), and WO 2004/006876. MIC is the minimum inhibitory concentration a component prevents visible growth of a microbe. The FC and FIC parameters can be defined as follows: […]
(§3) Liquid broth assays (MIC and checkerboard) were conducted to identify the minimum concentration(s) of individual and binary combinations of natural preservation materials. […] Each of the two-preservation chemical/broth mixes was then combined in a third 96 well plate at varying concentrations and then inoculated with 1-5×10^6 microorganisms and incubated at 30° C. for 24 hours, after which optical densities at OD600nm were measured.

[2] = tested on: Enterobacter gergoviae ATCC 33028; experiment: Liquid broth assay (MIC and checkerboard) against Enterobacter gergoviae; assay type: cell-based; conditions: Pluralibacter gergoviae, ATCC33028, component by itself, 30° C., 24 hours, MIC = <25% growth vs control (OD600nm), read-out: minimal inhibitory concentration (MIC)
Source text: as §1, §2, §3

Compound: CN(C)Cc1c[nH]c2ccccc12 [Gramine, 1-(1H-Indol-3-yl)-N,N-dimethylmethanamine]
- MIC [1]: 6250 µg/mL
- MIC [2]: 6250 µg/mL

From patent US20250151728A1, “ANTIMICROBIAL SYSTEM WITH BETA CARBOLINE ALKALOID AND INDOLE ALKALOID AND COMPOSITIONS COMPRISING THEM” (Conopco, Inc., d/b/a UNILEVER, priority 2021, published 2025)
